Data as given in patent US20090012014A1, “Compound, Composition and a Process Thereof” (INDUS BIOTECH PVT. LTD, priority 2007, published 2009).
Several values for one entry are separate records, joined by “and”; a condition that tells them apart may be missing. Equal entries are not always repeated. Where two headings read alike, the source gives them in different places. Marks after values point to notes of the source that are not given here.

How the values were obtained:
[1] = test system: patients with rheumatoid arthritis
[2] = test system: paw edema in Carrageenan model; test: Acute study: Carrageenan induced paw edema; type: in vivo, Swiss Wistar rats; conditions: paw volume at 3 hrs
Description: These tests are for the inhibition of inflammation caused by prostaglandins in short period of time. This can be tested in animal (Swiss Wistar rats) as per well known protocols which are treated with Carrageenan. This model tests out anti-inflammatory activity caused by prostaglandin inhibition. Celecoxib is given as a positive control to do a comparison and evaluate the efficacy of anti-inflammatory purified extract as described above in Prostaglandin inhibition in 3 hrs.
Paw Volume measured is compared with Control group and standard drug, celecoxib. Paw volume initial to the paw volume at 1 h, 2 h, 3 h is measured and peak inhibition, which is at 3 hrs is noted down. In this model efficacy as well as dosage of drug is arrived by considering peak % inhibition. […] This is also not statistically significant.

C-reactive protein = C-reactive protein test (CRP test kit) in FCA arthritis model; type: in vivo, Swiss Wistar rats
Description: This activity mimics the onset of autoimmune damage to joints and tests the efficiency of drug against this damage. Leflunamide is taken as positive control. Here Swiss Wistar rats are treated with Freunds Complete Adjuvant (CFA) to induce chronic inflammation symptoms similar to rheumatis diseases. The symptoms appear by 13th day. The drug treatment is started from 13th day to 23rd day for 10 days. […] In this method the CRP test kit ([…], Dreadnought Trading Estate Bridgeport Dorset DT6 5BU UK) was used for the measurement of CRP. The results are expressed either […] or -ve depending on the formation of precipitate Normal range of CRP: up to 6 mg/L. Below this level is considered to be negative.

gastric mucosa = test: Gastric ulcerogenic effects after repeated oral administration; type: in vivo, male Swiss Wistar rats
Excerpt: Gastric ulcerogenic effects of Test compound and celecoxib after repeated oral administration for 7 consecutive days to the male Swiss Wistar rats.
In the control group, structure of the gastric mucosa appears normal.

FCA induced arthritis = test: Chronic study: FCA (Freunds Complete Adjuvant) induced arthritis; type: in vivo, Swiss Wistar rats; conditions: for Anti-inflammatory activity (% Inhibition) in FCA induced arthritis Day 18: treatment from 13th day
Description: (§1) This activity mimics the onset of autoimmune damage to joints and tests the efficiency of drug against this damage. Leflunamide is taken as positive control. Here Swiss Wistar rats are treated with Freunds Complete Adjuvant (CFA) to induce chronic inflammation symptoms similar to rheumatis diseases. The symptoms appear by 13th day. The drug treatment is started from 13th day to 23rd day for 10 days.
In addition, a disseminated arthritic reaction (secondary response) developed from […] alter FCA injection. The swelling was observed both in the injected paw and in the non-injected contra lateral paw. The reduction of the planter volume was statistically significant for both hind legs. The test compound gave a very impressive reduction of 52% at 100 mg per kg dose which is statistically significant. This compared very well with DMARD drug Leflunomide. However, Leflunomide is highly nephrotoxic and cannot be administered for a long time.

Cotton pellet Granuloma = test: Sub acute study: cotton pellet granuloma; type: in vivo, Swiss Wistar rats; conditions: dried pellet weight after 7 days
Description: This evaluates inflammation over a period of 7 days. This is done by classical animal model (in Swiss Wistar tats) of cotton pallet granuloma. Celecoxib is a positive control for comparison of the efficacy of Test Compound.
100 mg per kg is the optimal dose. A comparison is made with Celecoxib.

TNF-α = TNF-α level in serum of FCA induced arthritic rat; type: in vivo
Description: as §1
Effect of Test compound and standard drug Celecoxib on TNF-α level in FCA induced arthritis rat. The serum from the FCA induced arthritic rat was examined for Tumor necrosis factor alpha. The experimental protocol was same as example no.

[3] = out of the total 70 patients recruited

## CC(COC1OC(CO)C(O)C(O)C1O)C(C)CC1(O)CC2CC3C4CC=C5CC(OC6OC(CO)C(O)C(O)C6OC6OC(C)C(O)C(O)C6O)CCC5(C)C4CCC3(C)C2C1C (centres unmarked) [Test compound]
[1]; 12 months
  HAQ (Health Assessment Questionnaire) 12 mths (mean): 4.4
  JCSW (Joint count swelling) 12 mths (mean): 1.6
[1]; 12 months, 16 mg per kg body weight
  JCPT (Joint Count Pain/Tenders) 12 mths (mean): 5.5
[1]; 12 months, FIG. 2, listed as test compound
  CRP (C Reactive Protein), nephlometry, over time: reduction
[1]; 12 months, FIG. 3, listed as test compound
  RF (Rheumatoid factor) Titre, nephlometry, over time: reduction
[1]; 12 months, Westergren
  ESR 12 mths (mean): 66
[1]; 12 months, scale 0-10 cms
  painVAS (pain visual analogue scale) 12 mths (mean): 3.6
  patGlobal (patient global assessment) 12 mths (mean): 3.4
  phyGlobal (physician global assessment) 12 mths (mean): 2.6
[1]; Baseline
  HAQ (Health Assessment Questionnaire) Baseline (mean): 8.8
  HDL BASELINE: 44.6
  LDL BASELINE: 117.08
[1]; Baseline ratio
  HDL/LDL BASELINE: 0.41
[1]; Baseline, 66 joints
  JCSW (Joint count swelling) Baseline (mean): 9.5
[1]; Baseline, 68 joints, 16 mg per kg body weight
  JCPT (Joint Count Pain/Tenders) Baseline (mean): 24.3
[1]; Baseline, Westergren
  ESR Baseline (mean): 61.4
[1]; Baseline, scale 0-10 cms
  painVAS (pain visual analogue scale) Baseline (mean): 6.6
  patGlobal (patient global assessment) Baseline (mean): 6.4
  phyGlobal (physician global assessment) Baseline (mean): 5.7
[1]; Patient No. 019
  Patients in Clinical Remission: Duration (Months): 8 Months
[1]; Patient No. 035*, ACR remission, ESR <30 mm
  Patients in Clinical Remission: Duration (Months): 3 Months
[1]; Patient No. 037*, ACR remission, ESR <30 mm
  Patients in Clinical Remission: Duration (Months): 3 Months
[1]; Patient No. 038*, ACR remission, ESR <30 mm
  Patients in Clinical Remission: Duration (Months): 3 Months
[1]; Patient No. 049
  Patients in Clinical Remission: Duration (Months): 5 Months
[1]; Patient No. 051
  Patients in Clinical Remission: Duration (Months): 2 Months
[1]; Patient No. 054*, ACR remission, ESR <30 mm
  Patients in Clinical Remission: Duration (Months): 3 Months
[1]; Patient No. 057
  Patients in Clinical Remission: Duration (Months): 6 Months
[1]; Patient No. 059
  Patients in Clinical Remission: Duration (Months): 5 Months
[1]; Patient No. 112*, ACR remission, ESR <30 mm
  Patients in Clinical Remission: Duration (Months): 7 Months
[1]; at 12 months, printed 95% CI—0.35, −2.90, listed as test compound
  Serum albumin: significant improvements
[1]; at 12 months, printed (95%) CI 1.2, 35, listed as test compound
  Blood Urea Nitrogen: significant improvements
[1]; baseline to 12 months
  ESR Mean change: −3.05
[1]; human, in vivo
  Adverse alterations in routine haematology, biochemistry (renal and hepatic) and metabolic parameters: no significant adverse alterations
  HDL/LDL ratio of rheumatic patients after treatment: 0.45
  Laboratory values for SGOT, SGTP, GGT, Serum bilirubin and Serum creatinine: No significant changes
  Side-effects recorded: Minor side-effects
[1]; mean change from baseline
  HDL MEAN CHANGE: −1.57
  HDL/LDL MEAN CHANGE: −6.1
  LDL MEAN CHANGE: 12.7
[1]; one year study
  ACR 50 improvement response (patients responding): 40%
  Patients who satisfied the ACR criteria for remission that also includes the ESR response: 5 patients
[1]; one year study, 20% improvement in ACR factors
  ACR 20 improvement response (patients responding): 80%
[1]; one year study, P<0.05, listed as test compound
  All clinical efficacy measures (ACR core set), overall result in words: significant disease modifying anti-arthritic action
[1]; [3]
  Patients completely asymptomatic as per ACR core set clinical measures (percent): 11.9%
  Patients completely asymptomatic as per ACR core set clinical measures / remission of disease: 10 patients
[2]; Dose 50 mg/kg
  Anti-inflammatory activity (% Inhibition) in Carrageenan model In 3 Hrs.: 26.49* %
[2]; Dose 100 mg/kg
  Anti-inflammatory activity (% Inhibition) in Carrageenan model In 3 Hrs.: 32.54* %
[2]; Dose 100 mg/kg, listed as test compound
  Anti-inflammatory activity (% Inhibition) in Carrageenan model In 3 Hrs.: 32.44%
[2]; Dose 200 mg/kg
  Anti-inflammatory activity (% Inhibition) in Carrageenan model In 3 Hrs.: 34.44* %
C-reactive protein; After 10 Day Treatment, CRP test kit, precipitate
  C-reactive protein After 10 Day Treatment: Negative (Normal range of CRP: up to 6 mg/L. Below this level is considered to be negative)
C-reactive protein; Before Treatment, CRP test kit, precipitate
  C-reactive protein Before Treatment: Negative (Normal range of CRP: up to 6 mg/L. Below this level is considered to be negative)
C-reactive protein; after treatment
  C-reactive protein in FCA chronic arthritis model (in words): decrease in C-reactive protein
Gastric mucosa; Dose 200 mg/kg p.o., 7 consecutive days
  Mean score of Lesion intensity: Nil
Gastric mucosa; rat, in vivo, po, 200 mg/kg
  Average of no. of ulcer per animal: Nil
  No. of animals with ulcer (%): Nil
  Ulcer Index (UI): Nil
FCA induced arthritis; Dose 50 mg/kg
  Anti-inflammatory activity (% Inhibition) in FCA induced arthritis Day 18: 18.04%
FCA induced arthritis; Dose 50 mg/kg, treatment 13th to 23rd day
  Anti-inflammatory activity (% Inhibition) in FCA induced arthritis Day 23: 29.07* %
FCA induced arthritis; Dose 100 mg/kg
  Anti-inflammatory activity (% Inhibition) in FCA induced arthritis Day 18: 32.38%
FCA induced arthritis; Dose 100 mg/kg, treatment 13th to 23rd day (text values print no day), 100 mg/kg
  Anti-inflammatory activity (% Inhibition) in FCA induced arthritis Day 23: 52.81* %
FCA induced arthritis; Dose 100 mg/kg, treatment 13th to 23rd day (text values print no day), listed as test compound, 100 mg/kg
  Anti-inflammatory activity (% Inhibition) in FCA induced arthritis Day 23: 52% and 56%
FCA induced arthritis; Dose 200 mg/kg
  Anti-inflammatory activity (% Inhibition) in FCA induced arthritis Day 18: 25.41%
FCA induced arthritis; Dose 200 mg/kg, treatment 13th to 23rd day
  Anti-inflammatory activity (% Inhibition) in FCA induced arthritis Day 23: 56.55* %
Cotton pellet Granuloma; Dose 50 mg/kg
  Anti-inflammatory activity (% Inhibition) in Cotton pellet Granuloma: 24.2* %
Cotton pellet Granuloma; Dose 100 mg/kg, 100 mg/kg
  Anti-inflammatory activity (% Inhibition) in Cotton pellet Granuloma: 33.2* %
Cotton pellet Granuloma; Dose 100 mg/kg, listed as test compound, 100 mg/kg
  Anti-inflammatory activity (% Inhibition) in Cotton pellet Granuloma: 32.3%
Cotton pellet Granuloma; Dose 200 mg/kg
  Anti-inflammatory activity (% Inhibition) in Cotton pellet Granuloma: 39.4** %
TNF-α; Day 0
  Concentration of TNF-α in pg/mL Day 0: 36.8 pg/mL
TNF-α; Day 13
  Concentration of TNF-α in pg/mL Day 13: 45.3 pg/mL
TNF-α; Day 21
  Concentration of TNF-α in pg/mL Day 21: 36.1 pg/mL
TNF-α; Day 21, listed as experimental drug
  Concentration of TNF-α in pg/mL Day 21: inhibits TNF-α
